According to patent US20100197635A1, “TREATMENT OF TARDIVE DYSKINESIA WITH PYRIDOXAL 5'-PHOSPHATE” (Medicure International Inc., priority 2007, published 2010):
Like-named read-outs stand apart in the source and are kept apart here.

Experiments:
[1] = system: Tardive Dyskinesia; conditions: 100-400 mg vitamin B6 per day, TD induced by schizophrenia medication; cited from earlier work
[2] = unlikely to pose risks of adverse health effects in healthy people; cited from earlier work
[3] = Phase I single ascending dose study, safety and tolerance of P5P enteric-coated tablet; format: in vivo, healthy subjects
Procedure: (§1) A Phase I, single center, single-dose, open-label, sequential ascending dose study to evaluate the safety and tolerance of pyridoxal-5′-phosphate, in an enteric-coated tablet, following a single dose of 250 mg, 750 mg, 1000 mg, and 4000 mg in healthy subjects under fasting conditions was conducted.
(§2) A total of 32 healthy, adult subjects signed the study-specific Informed Consent Form and were confined in the clinical study unit; of these subjects, 24 (6 subjects in each dose level; 3 males and 3 females) were dosed and were enrolled in the study; all of these enrolled subjects completed the study. Subjects were confined to the SFBC Anapharm Clinical Research Facility from at least 12 hours prior to drug administration until after the 24.0-hour post-dose blood draw.
Subjects enrolled in this study were members of the community at large. […] All participating subjects were judged eligible for the study when assessed against the inclusion and exclusion criteria. […]

[4] = system: P2 purinoceptors; conditions: cited from earlier work
[5] = system: Tardive Dyskinesia; assay: Double blind, placebo controlled crossover study of P5P in tardive dyskinesia (Extrapyramidal Symptom Rating Scale); format: in vivo, patients
Procedure: A double blind, placebo controlled crossover study is conducted among patients with TD induced by the use of a neuroleptic medication. Patients are divided into 5 groups: control, Vitamin B6 treatment (400 mg), low dose of P5P (100 mg), medium dose of P5P (250 mg), and high dose of P5P (750 mg). All dosages are administered orally. Treatments are given daily.

[6] = Phase I single ascending dose study, pharmacokinetics of P5P enteric-coated tablet; format: in vivo, healthy subjects; conditions: both sexes, human, fasting; for Cmax / Tmax / half-life: plasma, baseline-corrected; for AUC(0-t): baseline-corrected plasma P5P
Procedure: as §1, §2
Subjects were administered a single oral dose of study medication, as a 1×250 mg (Cohort 1), 3×250 mg (Cohort 2; total dose of 750 mg), 4×250 mg (Cohort 3; total dose of 1000 mg), or 16×250 mg (Cohort 4; total dose of 4000 mg) enteric-coated tablets.
After a supervised overnight fast of at least 10 hours, subjects were administered the medication as a single oral dose of 1, 3, 4, or 16 enteric-coated tablets containing 250 mg of P5P (total dose of 250mg, 750 mg, 1000 mg, or 4000 mg), with 300 mL of water. Subjects were dosed as specified in the protocol, and subsequently fasted for at least 4 hours.
The pharmacokinetic parameters to determine bioavailability for this study were: area under the concentration-time curve from time zero to time of last non-zero concentration (AUC0-t), maximum observed concentration (Cmax), time of observed Cmax (Tmax) and elimination half-life (equivalent to t1/2).

Cc1ncc(CO)c(CO)c1O [vitamin B6, pyridoxine]
scores on the subscales of the Extrapyramidal Symptom Rating Scale (parkinsonism and dyskinetic movement scales) [1]: improved scores | Tolerable Upper Intake Level [2]: 100 mg

Cc1ncc(COP(=O)(O)O)c(C=O)c1O [P5P, 3-hydroxy-2-methyl-5-[(phosphonooxy)methyl]-4-pyridine-carboxaldehyde]
tolerability ([3]; dosages up to 4000 mg): well tolerated | side effects or evidence of toxicity ([3]; single oral doses 250, 750, 1000, 4000 mg): none of the patients presented any significant side effects or evidence of toxicity | ATP induced calcium ion influx into cells [4]: inhibits | Extrapyramidal Symptom Rating Scale scores, medium or high dose compared to low dose group ([5]; P5P 250 mg or 750 mg vs 100 mg, orally daily): significantly improved scores | Extrapyramidal Symptom Rating Scale scores, medium dose compared to high dose ([5]; P5P 250 mg vs 750 mg, orally daily): do not exhibit significantly different scores | scores on the subscales of the Extrapyramidal Symptom Rating Scale (parkinsonism and dyskinetic movement scales) ([5]; P5P 100, 250 or 750 mg orally daily, compared to control or vitamin B6 (400 mg) groups): improved scores | Cmax ([6]; single oral dose 250 mg): 0.3 ± 0.2 µg/mL | Tmax ([6]; single oral dose 250 mg): 3.2 ± 1.3 h | half-life ([6]; single oral dose 250 mg): 53.8 ± 41.9 h | Cmax ([6]; single oral dose 750 mg): 3.9 ± 5.4 µg/mL | Tmax ([6]; single oral dose 750 mg): 2.8 ± 0.9 h | half-life ([6]; single oral dose 750 mg): 27.9 ± 19.5 h | Cmax ([6]; single oral dose 1000 mg): 1.5 ± 2.3 µg/mL | Tmax ([6]; single oral dose 1000 mg): 2.9 ± 1.4 h | half-life ([6]; single oral dose 1000 mg): 36.2 ± 30.6 h | Cmax ([6]; single oral dose 4000 mg): 1.7 ± 2.7 µg/mL | Tmax ([6]; single oral dose 4000 mg): 4.7 ± 3.5 h | half-life ([6]; single oral dose 4000 mg): 16.5 ± 16.5 h | AUC(0-t) ([6]; single oral dose 250 mg): 2.6 ± 1.3 µg·h/mL | AUC(0-t) ([6]; single oral dose 750 mg): 12.8 ± 15.4 µg·h/mL | AUC(0-t) ([6]; single oral dose 1000 mg): 5.9 ± 7.7 µg·h/mL | AUC(0-t) ([6]; single oral dose 4000 mg): 6.9 ± 7.4 µg·h/mL
